Test results taken from PubChem BioAssay (NCI).
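Following 48 hours of exposure in 96-well plates, responses at five concentrations were used to interpolate endpoints linearly. The concentration for 50% growth inhibition is given as GI50. TGI: total growth inhibition.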

Assays:
Test in all cases: NCI tumour cell line growth inhibition, 48 h
SK-MEL-28 melanoma = tested on: SK-MEL-28 melanoma
MDA-MB-231 breast = tested on: MDA-MB-231 breast
MOLT-4 leukemia = tested on: MOLT-4 leukemia
OVCAR-8 ovarian = tested on: OVCAR-8 ovarian
786-0 renal = tested on: 786-0 renal
COLO 205 colon = tested on: COLO 205 colon
IGROV1 ovarian = tested on: IGROV1 ovarian
MALME-3M melanoma = tested on: MALME-3M melanoma
MDA-N = tested on: MDA-N
OVCAR-3 ovarian = tested on: OVCAR-3 ovarian

Structure (SMILES) | TGI (SK-MEL-28 melanoma) [µM] | TGI (MDA-MB-231 breast) [µM] | TGI (MOLT-4 leukemia) [µM] | TGI (OVCAR-8 ovarian) [µM] | TGI (786-0 renal) [µM] | TGI (COLO 205 colon) [µM] | TGI (IGROV1 ovarian) [µM] | TGI (MALME-3M melanoma) [µM] | TGI (MDA-N) [µM] | TGI (OVCAR-3 ovarian) [µM] | GI50 (SK-MEL-28 melanoma) [µM] | GI50 (MDA-MB-231 breast) [µM] | GI50 (OVCAR-3 ovarian) [µM] | GI50 (COLO 205 colon) [µM]
COC(=O)c1cnc(Cl)cn1 | > 100 | > 100 | > 100 | > 100 | > 100 | > 100 | 97.1 | > 100 | – | – | – | – | – | –
Cc1cc(S(=O)(=O)Nc2nc(N)nc(N(C)C)n2)c(SCC(=O)O)cc1Cl | > 10 | – | > 10 | > 10 | > 10 | > 10 | > 10 | > 10 | > 10 | > 10 | – | – | – | –
C=C1C(=O)O[C@H]2[C@@H](O)[C@H](C)CCC[C@]3(C)O[C@H]3CC[C@@]3(C)O[C@@H]3C[C@@H]12 | 8.91 | 10.8 | 7.15 | 13.4 | 12.5 | 10.3 | 12.1 | – | – | 10.6 | – | – | – | –
COc1ccc(CN=C(N)N)c2ccccc12 | 86.5 | – | > 100 | > 100 | > 100 | 38 | – | 34.7 | > 100 | > 100 | – | – | – | –
CN(C)C(=O)OC(Cn1cncn1)(Cn1cncn1)c1ccc(Cl)cc1Cl | > 100 | > 100 | > 100 | > 100 | > 100 | > 100 | > 100 | – | – | > 100 | – | – | – | –
O=C(O)/C(Cc1ccc([N+](=O)[O-])cc1)=N\O | > 100 | > 100 | – | > 100 | > 100 | > 100 | > 100 | > 100 | > 100 | > 100 | – | – | – | –
CN(/N=C/c1ccnc2ccccc12)c1ccc(Cl)cc1[N+](=O)[O-] | – | > 100 | > 100 | > 100 | > 100 | > 100 | > 100 | > 100 | > 100 | > 100 | – | – | – | –
CC(=O)OC[C@@H](OC(C)=O)[C@H](OC(C)=O)[C@@H]1OC(C)(C)O[C@@H]1C1SCCCS1 | > 100 | > 100 | > 100 | > 100 | > 100 | > 100 | – | > 100 | > 100 | > 100 | – | – | – | –
Cc1noc(NC2=CC(=O)C(=O)c3ccccc32)c1C | > 100 | > 100 | 47.4 | > 100 | > 100 | > 100 | – | 17.6 | 1.57 | > 100 | – | – | – | –
COc1ccc(N2C(=O)C3c4[nH]c5ccc(F)cc5c4C4CCC(c5ccccc5)CC4C3C2=O)cc1 (stereo not drawn) | 32.7 | 44 | – | 50.6 | 12.1 | > 100 | 56.2 | 33.3 | > 100 | > 100 | – | – | – | –
O=[N+]([O-])c1cc2c(cc1/C=N/n1c(CO)nc3ccccc31)OCO2 | > 100 | > 100 | > 100 | > 100 | > 100 | > 100 | – | > 100 | > 100 | > 100 | – | – | – | –
CC[C@H]1C=CCC[C@@]2(C[C@@H]3CC[C@H]4[C@@H](C(=O)OCCCCCCCCCCCCCCCC(=O)N(CCCN)C[C@@H](O)CCN)[C@@]5(CCC[C@@H](C)O5)NC(=[N+]34)N2)O1 | 2.88 | – | 2.84 | 4.93 | 3.3 | 3.79 | 3.13 | 3.24 | 3.01 | > 10 | – | – | – | –
CC1=NN(c2nc(N)nc(CC#N)n2)C(C)(C)C1 | > 100 | > 100 | > 100 | > 100 | > 100 | > 100 | > 100 | – | – | – | – | – | – | –
C=CCO[C@]1(CC=C)C(=O)C(=O)OC1C1COC(C)(C)O1 (stereo partly drawn) | – | > 100 | 93.8 | 81.6 | > 100 | 37.5 | > 100 | 32.3 | > 100 | > 100 | – | – | – | –
NNC(=O)c1nnn(CCc2ccccc2)c1C(=O)NN | > 100 | > 100 | > 100 | > 100 | > 100 | > 100 | – | > 100 | > 100 | > 100 | – | – | – | –
Nc1ccc(C(=O)c2cn(CCN3CCOCC3)c3ccccc23)c2ccccc12 | > 100 | – | 52.5 | 52.7 | > 100 | 60.6 | 52.3 | > 100 | > 100 | > 100 | – | – | – | –
Nc1nc(N)c2cc(NCc3ccc(Cl)c(Cl)c3)ccc2n1 | 3.15 | 2.58 | – | – | – | 2.6 | – | – | – | 2.24 | 1.77 | 1.3 | 1.03 | 1.32
CC(C)C1=CC23CCC4C(C)(C(=O)O)CCCC4(C)C2CC1C1C(=O)N(c2ccccc2)C(=O)C13 (stereo not drawn) | > 100 | – | > 100 | > 100 | > 100 | 52.3 | > 100 | > 100 | – | > 100 | – | – | – | –
CC1=C(C(=O)c2ccccc2)C23C(=O)N(c4ccccc4)C(=O)C2=C(O)C=CC3(O)N1 (stereo not drawn) | 39.2 | > 100 | – | 98.9 | > 100 | > 100 | 51.9 | 65.1 | – | 58.9 | – | – | – | –
O=[N+]([O-])c1ccc(C=NCC2CCCN3CCCCC23)cc1 (stereo not drawn) | > 100 | > 100 | > 100 | > 100 | 52.1 | > 100 | > 100 | > 100 | > 100 | – | – | – | – | –
C/C=C/C1OC(O)(C(C)C(O)[C@H](C)C2OC(=O)/C(OC)=C/C(C)=C/[C@@H](C)[C@@H](O)[C@@H](C)C(O)C(C)C/C(C)=C/C=C/C2OC)C[C@@H](OC2CC(O)C(OC(N)=O)C(C)O2)C1C (stereo partly drawn) | 3.18 | – | < 0.01 | 15.7 | 1.42 | 1.27 | 12.9 | 0.801 | 1.11 | 3.24 | – | – | – | –
O=C(NCc1cccc2ccccc12)N/N=C\c1ccc(Cl)cc1 | > 100 | – | > 100 | > 100 | > 100 | > 100 | > 100 | > 100 | 75.7 | > 100 | – | – | – | –
O=C1OC(=O)c2cc(S(=O)(=O)c3ccc4c(c3)C(=O)OC4=O)ccc21 | > 100 | > 100 | – | > 100 | > 100 | > 100 | > 100 | > 100 | > 100 | > 100 | – | – | – | –
